Source: US20230110689A1, “AGONIST COMBINATION” (Zealand Pharma A/S, priority 2020, published 2023)
Starred links: 1 amine or outer side, 2 acyl side, 3 side chain; linkers in the order of their positions; H or OH if unused. Non-standard residues stand in square brackets, D forms with d. Groups on a side chain read outwards from the residue. *: point of attachment. C18 diacid = O=C(O)CCCCCCCCCCCCCCCCC(=O)*; γGlu = O=C(O)[C@H](CCC(=O)[*:2])N[*:1]; Aib = CC(C)(N)C(=O)O

Columns and labels:
Type in all cases: in vivo, C57BL/6J mice
[1] = test system: Short Bowel Syndome (SBS) mice; assay: Short bowel syndrome (SBS) mouse model: post operative survival, body weight and dietary intake; details: ICR mice
From the text: (§1) Adult, male C57BL/6J mice with ˜30 g body weight of ˜4 months, received a 12-cm ileum and cecum resection (ICR) with jejunocolonic anastomosis (see FIG. 1, middle). The mice were then randomly assigned to either Cpd 18 or vehicle treatment As control for the abdominal surgery, the sham group was included which had laparotomy, bowel exposure, transection and end-to-end anastomosis but no resection (see FIG. 1, bottom). To prevent intestinal obstruction, all mice were switched to liquid diet 2 days before surgery and maintained on this diet until the end of the experiment. Throughout the experiment, animals were singly housed. All mice were studied with the intention to survive to day 14.
(§2) Briefly, mice were anesthetized by i.p. injection of ketamine (100 mg/kg bw) and xylazine (15 mg/kg bw) and orally intubated and ventilated. After midline incision, the distal small bowel and the cecum were exposed and then transected 12 cm proximal to the ileocecal junction and immediately distal to the cecum. The resected bowel was removed, and the length of the specimen was measured. An end-to-end, jejuno-colonic anastomosis was created and the abdomen was closed. In the sham group, laparotomy, bowel exposure, transection and end-to-end anastomosis but no resection was performed. Immediately after surgery, all mice were weighed and received 1 ml isotonic saline subcutaneously and carprofen 5 mg/kg body weight. All surgical procedures were performed by the same surgeon. Mice were kept in a heated terrarium (29° C.) for 4 h and then returned to individual cages with free access to liquid food and water. The liquid diet was provided in feeding tubes. Mice were allowed to recover for a day after surgery, and then injected once daily with 30 nmol/kg body weight of Cpd 18. […]
(§3) Mice were scored for wellbeing daily as described (Berlin et al. 2019). If the wellness score dropped to below 4 pts, or when weight loss exceeded 20%, the mouse was immediately killed and not analyzed further. […]
Body weight (FIG. 6) and food consumption (FIG. 7) was measured daily. […]

[2] = test system: Short Bowel Syndome (SBS) mice; assay: SBS mouse model: histological morphometry of intestine (mucosal height, bowel diameter); details: ICR mice, 30 nmol/kg once daily, vs sham
From the text: as §1
Briefly, mice were anesthetized by i.p. injection of ketamine (100 mg/kg bw) and xylazine (15 mg/kg bw) and orally intubated and ventilated. […] The resected bowel was removed, and the length of the specimen was measured. […]
as §3
Sham and SBS mice were prepared as described under Preparation of Short Bowel Syndome (SBS) mice. […] Bowel diameter was measured from the same samples from serosa to serosa in two dimensions. […]

[3] = test system: Short Bowel Syndome (SBS) mice; assay: SBS mouse model: jejunum weight (wet weight, dry weight, water content per 2 cm); details: ICR mice, 30 nmol/kg once daily
From the text: as §1
as §2, with “tubes.” for “tubes. Mice were allowed to recover for a day after surgery, and then injected once daily with 30 nmol/kg body weight of Cpd 18.”
as §3
Sham and SBS mice were prepared as described under Preparation of Short Bowel Syndome (SBS) mice. […] Water content and dry weight was then derived and calculated.

[4] = test system: Short Bowel Syndome (SBS) mice; assay: SBS mouse model: gross morphology / length of intestine on day 14; details: ICR mice, 30 nmol/kg once daily, FIG. 16
From the text: as §1
Briefly, mice were anesthetized by i.p. injection of ketamine (100 mg/kg bw) and xylazine (15 mg/kg bw) and orally intubated and ventilated. After midline incision, the distal small bowel and the cecum were exposed and then transected 12 cm proximal to the ileocecal junction and immediately distal to the cecum. The resected bowel was removed, and the length of the specimen was measured. An end-to-end, jejuno-colonic anastomosis was created and the abdomen was closed. […]
as §3

## H-H[Aib]EGSFTSELATILDK([γGlu-C18 diacid])QAARDFIAWLIQHKITD-OH [Cpd 18]
[1]; 30 nmol/kg body weight once daily from day 1 after surgery, FIG. 5
  survival rate after 14 days: 74%
[1]; 30 nmol/kg once daily, liquid diet, measured daily, vs vehicle, FIG. 7
  dietary intake: lower in the Cpd 18 treated animals from day 2 onwards as compared to vehicle
[1]; 30 nmol/kg once daily, measured daily to day 14, vs vehicle, FIG. 6
  relative body weight (relative to initial weight): differed from the vehicle group after six days onwards by starting to increase towards the initial weight
[2]; day 14, crypt base to villus tip, FIG. 8
  mucosal height: approximately double the mucosal height of sham treated animals
[2]; day 14, serosa to serosa, FIG. 9
  bowel diameter: approximately double the bowel diameter of sham treated animals
[3]; day 14, desiccated sections, FIG. 11
  dry weight per 2 cm of intestine: the same increases in mass were measured
[3]; day 14, proximal jejunum, FIG. 10
  wet weight of 2 cm sections of intestine: 73 mg
[3]; day 14, FIG. 12
  percentage of water content per 2 cm of intestine: each group had an equal water content of the intestine
[4]; day 14, representative example vs sham
  bowel length and thickness: An increase in bowel length and thickness
[4]; day 14, representative example, absent in vehicle
  solid feces in intestine: solid feces in the sham and Cpd 18 treated intestine
